Source: publication PMC12049818, “Identification of NUV-244 as a PNPLA3 I148M degrading small molecule” (iScience, 2025)

Columns and labels:
[1] = tested on: Huh7 cells expressing PNPLA3 I148M-tagRFP; experiment: Lipid droplet dispersion / normalization of lipid droplet morphology in Huh7 PNPLA3 I148M-tagRFP cells; assay type: cell-based, human
Text: During the HTS we observed that PNPLA3 I148M-tagRFP expression altered the morphology of lipid droplets compared to the Huh7 parental control cells. PNPLA3 I148M-tagRFP expression leads to clustering of large lipid droplets around the nucleus and a reduction of small cytoplasmic lipid droplets, which is reflected by changes (lowering) in the number of lipid droplets scorable by the lipid droplet detection algorithm per cell (Figures 4A and 4B, Video S1). Indeed, a role for PNPLA3 I148M in the regulation of lipid droplet morphology is known.[12]^,[13]^,[15]^,[16]^,[21]^,[33] We speculated that reduction of PNPLA3 I148M-tagRFP on lipid droplets of Huh7 cells should therefore restore lipid droplet morphology back to the WT situation in the parental cell line. For this we analyzed all hits at the retest stage in the primary assay. […]
Images were analyzed using Harmony (Revvity) and MetaXpress software (Molecular Devices, USA) to quantify lipid droplet morphology and PNPLA3 I148M-tagRFP intensity.
Assay plates were evaluated based on Z’ scores (>0.6) and signal-to-background ratio (>12) using Genedata Screener® for HTS and Condoseo modules (Genedata, Switzerland). […] Automated image analysis routines were set up to quantify the number, morphology and intensity of nuclei, lipid droplets and the intensity of PNPLA3 I148M-tagRFP on lipid droplets. […]

PNPLA2 = biological target: T1, PNPLA2 (Homo sapiens, UniProt Q96AD5); experiment: nanoDSF thermal shift, PNPLA2 protein; assay type: binding; details: ligand 25 μM
T1 sequence (Q96AD5 1-504): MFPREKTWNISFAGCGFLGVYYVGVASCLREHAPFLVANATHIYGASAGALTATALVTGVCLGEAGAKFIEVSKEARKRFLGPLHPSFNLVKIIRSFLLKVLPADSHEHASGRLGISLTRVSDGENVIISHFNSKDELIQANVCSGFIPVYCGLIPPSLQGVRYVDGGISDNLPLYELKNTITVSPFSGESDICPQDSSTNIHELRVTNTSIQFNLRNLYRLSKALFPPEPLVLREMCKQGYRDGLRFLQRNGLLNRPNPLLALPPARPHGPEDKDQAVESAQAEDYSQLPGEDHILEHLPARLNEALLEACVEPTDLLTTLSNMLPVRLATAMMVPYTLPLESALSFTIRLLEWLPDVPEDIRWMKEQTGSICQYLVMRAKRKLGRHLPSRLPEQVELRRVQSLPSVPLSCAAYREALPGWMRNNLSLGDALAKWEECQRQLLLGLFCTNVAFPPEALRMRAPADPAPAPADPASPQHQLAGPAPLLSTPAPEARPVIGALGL
Text: To investigate the mode of action of NUV-244, we evaluated its direct binding to the PNPLA3 I148M protein using nano differential scanning fluorimetry (nanoDSF). In this assay, compounds that bind to a target protein can lead to thermal stabilization, preventing protein denaturation, which is reflected in a shift of the protein melting curve.
Full-length wild-type PNPLA3 (Q9NST1), mutant PNPLA3 (I148M), and PNPLA2 (Q96AD5) were cloned into the pVL1393 vector with an N-terminal Flag-Tag. Proteins were expressed in SF9 cells infected at a multiplicity of infection (MOI) of 1 for 72 hours. Protein purification was performed using a two-step process. The first step involved affinity purification using M2 anti-Flag agarose beads. This was followed by gel filtration chromatography using a Superdex 200 column. Thermal melting experiments were carried out using a Prometheus NT.48 instrument (NanoTemper Technologies). Proteins were prepared in 20 mM Tris-HCl pH 7.4, 100 mM NaCl, 5 % Glycerol, 2 mM DTT and 0.2 mg/mL was used as a final concentration in 50 μL volume. For binding experiments, ligands were added to the mixture at a final concentration of 25 μM, DMSO was used as control. […] The intrinsic protein fluorescence at 330 and 350 nm was recorded. Data were analysed using Prometheus NT.48 software. Thermal shifts (ΔTm) were calculated, and Z-scores greater than 6 indicated robust stabilization. […]

Cc1cccc(Cc2nc(C)c(C(=O)Nc3cc(O)ccc3Cl)s2)c1 [NUV-244]
appearance of small mobile lipid droplets (time-lapse) ([1]; 5μM for 24h, Huh7 expressing PNPLA3 I148M): partially restore | EC50 ([1]; Homo sapiens, Huh-7, resynthesis, representative curve, Figure 4C, read-out: EC50 [M] Lipid droplet aggregates): 4.84e-07 M | effect on melting curve of PNPLA2 protein (PNPLA2): did not affect the melting curve
